Source: publication PMC2825274 (PLoS ONE, 2010)
In brackets after ≈: the same amount, converted by molar mass. Several values for one entry are separate records, joined by “and”; a condition that tells them apart may be missing. Equal values may be shown once. Entries after “also recorded” stand apart in the source; their conditions may differ. Read-outs that look alike come from different tables or passages of the source.

Legend:
[1] = test system: influenza A/California/05/09 (H1N1) (CA05); experiment: microbe, parasite or virus in culture; format: cell-based, influenza A virus; conditions: for EC50: Influenza A virus, H1N1, MDCK, 72 h
[2] = test system: influenza A/California/04/09 (H1N1) (CA04); experiment: microbe, parasite or virus in culture; format: cell-based, influenza A virus; conditions: for EC50: Influenza A virus, H1N1, MDCK, 72 h
[3] = test system: 2009 H1N1 influenza strains A/California/04/09 (CA04), A/California/05/09 (CA05) and A/California/10/09 (CA10); experiment: microbe, parasite or virus in culture; format: cell-based, influenza A virus; conditions: for EC50: Influenza A virus, H1N1, MDCK
[4] = test system: A/New Caledonia/20/99 (H1N1) (NC20) susceptible; experiment: microbe, parasite or virus in culture; format: cell-based, influenza A virus

Compound | EC50 [1] | EC50 [2] | EC50 [3] | EC50 ([4]; Influenza A virus, H1N1, MDCK) | inhibition of virus-induced CPE as single agent [3] | further results
NC12CC3CC(CC(C3)C1)C2 [Amantadine] | 106 µM and 20 µg/mL | 85 µM and 16 µg/mL | 16 µg/mL to 20 µg/mL and 85 µM to 106 µM | 0.22 mg/L (≈ 1.45 µM) |  | amantadine concentration with significant contribution to the synergy of the TCAD regimen [1]: ≥ 0.1 µg/mL; contribution to the total synergy of the TCAD regimen [1]: 24%; amantadine concentration with significant contribution to the synergy of the TCAD regimen [2]: 3.2 µg/mL; contribution to the total synergy of the TCAD regimen [2]: 39%; antiviral activity as a single agent [3]: no significant antiviral activity; fold reduction in susceptibility [3]: > 250 fold; fold reduction of single-agent activity [3]: 100 fold
CCC(CC)[C@H](NC(C)=O)[C@@H]1[C@H](O)[C@@H](C(=O)O)C[C@H]1N=C(N)N [Peramivir] |  |  |  |  | concentration-dependent inhibition of cytopathic effect | TC50 (MDCK cells): >100 mg/L
NC(=O)c1ncn([C@@H]2O[C@H](CO)[C@@H](O)[C@H]2O)n1 [Ribavirin] | 23 µM and 5.6 µg/mL | 28 µM and 7 µg/mL |  | 3.1 mg/L (≈ 12.7 µM) | concentration-dependent inhibition of cytopathic effect | 
CC(N)C12CC3CC(CC(C3)C1)C2 (stereo not drawn) [Rimantadine, rimantadine] | > 55 µM and > 12 µg/mL | > 51 µM and > 11 µg/mL | > 12 µg/mL and > 55 µM |  | did not produce inhibition; also recorded: no activity | 
CC(=O)N[C@H]1[C@H]([C@H](O)[C@H](O)CO)OC(C(=O)O)=C[C@@H]1N=C(N)N [Zanamivir] | 230 nM and 0.078 µg/mL | 350 nM and 0.12 µg/mL |  |  | concentration-dependent inhibition of cytopathic effect | TC50 (MDCK cells; dog): >100 mg/L
Oseltamivir carboxylate |  |  |  |  | concentration-dependent inhibition of cytopathic effect | EC50 [4]: 0.20 mg/L
